Target: T1, peroxisome proliferator-activated receptor gamma (PPARγ) (Mus musculus, UniProt P37238)
T1 construct: gene Pparg; LBD, GFP fusion overexpressed in 293T cells
T1 sequence (P37238 238-505 limits assumed): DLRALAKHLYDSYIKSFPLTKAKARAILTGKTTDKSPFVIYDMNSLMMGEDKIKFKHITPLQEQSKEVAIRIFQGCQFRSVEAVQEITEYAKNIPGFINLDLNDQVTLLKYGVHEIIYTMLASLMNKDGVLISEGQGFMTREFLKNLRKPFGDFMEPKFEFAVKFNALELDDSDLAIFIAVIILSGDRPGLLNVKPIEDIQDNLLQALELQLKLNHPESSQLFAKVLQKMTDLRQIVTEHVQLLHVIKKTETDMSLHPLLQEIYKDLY
Assay: microscale thermophoresis with GFP-PPARγ LBD in cell lysate; supported by luciferase reporter (partial agonist)
Format: binding

SMILES: C[C@H]1O[C@@H](O[C@H]2CC[C@@]3(C)[C@@H](CC[C@]4(C)[C@@H]3C=C[C@]35OC[C@@]6(CCC(C)(C)C[C@H]63)[C@@H](O)C[C@]54C)[C@]2(C)CO)[C@H](O)[C@@H](O[C@@H]2O[C@H](CO)[C@@H](O)[C@H](O)[C@H]2O)[C@H]1O [NJT-2, saikosaponin A]
- Kd: 5.07 µM

— paper PMC11233932, “Identification of an alternative ligand‐binding pocket in peroxisome proliferator‐activated receptor gamma and its correlated selective agonist for promoting beige adipocyte differentiation” (MedComm, 2024)
